Data on 28 compounds can be found in ChEMBL document CHEMBL5356983, “Design and optimization of piperlongumine analogs as potent senolytics” (Bioorg Med Chem Lett, 2024).

Data set [1] in a line: Selectivity ratio IC50 for non-senescent human WI-38 cells to IC50 for ionizing radiation induced human WI-38 senescent cells. Format: functional.
Another data set concerns WI-38. The data set can be described thus: Senolytic activity in ionizing radiation induced human WI-38 senescent cells by PI staining based flow cytometry analysis. Format: functional, cell-based. (In general: Flow cytometry measures light scatter and fluorescence of single cells or particles in a stream.)
Data set [2] can be described thus: Senolytic activity in non-senescent human WI-38 cells by PI staining based flow cytometry analysis. Format: toxicity, cell-based. The note with it: non-senescent WI-38 cells.

Bounds are passed on as bounds.

By IC50 is commonly meant the concentration that gives 50% inhibition. On to `COc1cc(/C=C/C(=O)N2CCC=C(Cl)C2=O)cc(OC)c1OC`, for which the “Ratio IC50” value in data set [1] was determined as 8.1. Also, the IC50 was 0.65 µM in the data set on WI-38 and 5.3 µM in data set [2].
For `COc1cc(/C=C/C(=O)N2CCC=C(Br)C2=O)cc(OC)c1OC`, in that order: 10.4, 0.52 µM and 5.4 µM.
The like results for `CN(C)CCOc1ccc(/C=C/C(=O)N2CCCC=C(Cl)C2=O)cc1` were, in that order, 1.3, 2.4 µM and 3 µM.
Turning to `COc1cc(/C=C/C(=O)N2CC(O)C=CC2=O)cc(OC)c1OC` (stereo unspecified), the “Ratio IC50” value in data set [1] was 1.5. In addition, the IC50 worked out at 7.4 µM with WI-38 and 11.3 µM in data set [2].
For `CN(C)C/C=C/C(=O)N1CCC=CC1=O`, in that order: 3.5, 2.8 µM and 9.7 µM.
For `CN(C)CCOc1ccc(/C=C/C(=O)N2CCC=CC2=O)cc1`, in that order: 13.3, 1.5 µM and 19.5 µM.
For `COc1cc(C#CC(=O)N2CCC=CC2=O)cc(OC)c1OC`, in that order: 3.2, 4.4 µM and 13.9 µM.
Take `O=C(C#Cc1ccccc1)N1CCC=CC1=O`: in data set [1], the “Ratio IC50” value was found to be 1.6. In addition, the IC50 was determined as 0.93 µM in the data set on WI-38 and 1.5 µM in data set [2].
The like results for `COc1cc(/C=C/C(=O)N2CCC(=O)/C(=C/c3ccc(F)cc3F)C2)cc(OC)c1OC` were, in that order, 4.2, 14.7 µM and 62.5 µM.
As for `COc1ccc(/C=C/C(=O)N2CCC=C(Br)C2=O)cc1`, in data set [1], the “Ratio IC50” value stood at 1.8. Besides, the 50% inhibitory concentration (IC50) in the data set on WI-38 came to 0.63 µM; in data set [2] it was 1.1 µM.
For `COc1cc(/C=C/C(=O)N2CCC(=O)/C(=C/c3ccc(F)cc3)C2)cc(OC)c1OC`, in that order: 3.9, 14 µM and 53.8 µM.
For `COc1ccc(/C=C/C(=O)N2CCC=C(Cl)C2=O)cc1`, the “Ratio IC50” value in data set [1] stood at 0.7. The IC50 turned out to be 0.51 µM in the data set on WI-38 and 0.35 µM in data set [2].
The like results for `CN(C)CCOc1ccc(/C=C/C(=O)N2CCC=C(Cl)C2=O)cc1` were, in that order, 1.5, 2.9 µM and 4.4 µM.
As for `COc1cc(/C=C/C(=O)N2CCC=C(C(F)(F)F)C2=O)cc(OC)c1OC`, the concentration for half-maximal inhibition (IC50) (with WI-38; in data set [2]) was above 40 µM each time.
In the case of `COc1ccc(/C=C/C(=O)N2CCCC=C(Br)C2=O)cc1`, in data set [1], the “Ratio IC50” value is on record as 4.4. In addition, the concentration for half-maximal inhibition (IC50) with WI-38 was found to be 1.3 µM; in data set [2], 5.8 µM.
For the compound `COc1cc(/C=C/C(=O)N2CCC(=O)CC2)cc(OC)c1OC`, the IC50 (in the data set on WI-38; in data set [2]) was above 40 µM throughout.
On to `COc1cc(/C=C/C(=O)N2CCC(N(C)C)CC2=O)cc(OC)c1OC` (stereo unspecified), for which the “Ratio IC50” value in data set [1] amounted to 3.4. In addition, the IC50 in the data set on WI-38 is 10.2 µM; in data set [2], 34.6 µM.
For `COc1ccc(/C=C/C(=O)N2CCCC=C(Cl)C2=O)cc1`, in that order: 9.3, 0.16 µM and 1.5 µM.
The like results for `CN(C)CCOc1ccc(/C=C/C(=O)N2CCCC=C(Br)C2=O)cc1` were, in that order, 1.2, 2.9 µM and 3.4 µM.
With `COc1cc(/C=C/C(=O)N2OCC=CC2=O)cc(OC)c1OC`, the “Ratio IC50” value in data set [1] turned out to be 6. Also, the IC50 in the data set with WI-38 worked out at 8.1 µM; in data set [2], 48.9 µM.
Consider `COc1cc(/C=C/C(=O)N2CCC=C(I)C2=O)cc(OC)c1OC`, for which the “Ratio IC50” value in data set [1] is recorded as 7.1. In addition, the half-inhibitory concentration (IC50) worked out at 2.3 µM in the data set with WI-38 and 16.3 µM in data set [2].
The like results for `CN(C)CCOc1ccc(/C=C/C(=O)N2CCC=C(Br)C2=O)cc1` were, in that order, 1.5, 3.2 µM and 4.8 µM.
As to `COc1cc(/C=C/C(=O)N2CCC=C(F)C2=O)cc(OC)c1OC`, the “Ratio IC50” value in data set [1] turned out to be 0.8. Also, the IC50 turned out to be 15.3 µM with WI-38 and 12.1 µM in data set [2].
As for `COc1cc(/C=C/C(=O)N2CCCC=C(Br)C2=O)cc(OC)c1OC`, the “Ratio IC50” value in data set [1] is listed as 6.5. Moreover, the half-maximal inhibitory concentration (IC50) was 0.56 µM with WI-38 and 3.6 µM in data set [2].
The like results for `COc1cc(/C=C/C(=O)N2CCCC=C(Cl)C2=O)cc(OC)c1OC` were, in that order, 3.7, 0.45 µM and 1.7 µM.
The like results for `COc1cc(/C=C/C(=O)N2CC=CCC2=O)cc(OC)c1OC` were, in that order, above 2.9, 27.5 µM and above 80 µM.
The like results for `COc1cc(/C=C/C(=O)N2C=CC=CCC2=O)cc(OC)c1OC` were, in that order, 1.3, 21.1 µM and 26.7 µM.
With `COc1cc(/C=C/C(=O)N2CCC=CC2=O)cc(OC)c1OC` [PIPLARTINE], the “Ratio IC50” value in data set [1] is recorded as 2.5. This compound returned an IC50 in data set [2] of 20.3 µM.
